# Several values for one entry are separate records, joined by “and”; a condition that tells them apart may be missing. Equal values may be shown once. Ends that are not written are not given here.
# Legend:
# [1] = Emission spectrum and fluorescence intensity of NIR dyes; format: physicochemical; conditions: excitation at 650 nm
# Procedure: FIG. 1 depicts the emission spectrum for NIR Dyes (ICG, IR-783, and 783-S-Ph-COOH) following excitation at 650 nm (A) and 690 nm (B).
# Fluorescence intensity of the NIR dyes was evaluated as well, following excitation at 650 nm (FIG. 2A).
# P-(GGFLGK-IR783)5% = test system: T1, P-(GGFLGK-IR783)5%
# T1 sequence: GGFLGK
# P-(GGFLGK-IR783)7.5% = test system: T2, P-(GGFLGK-IR783)7.5%
# T2 sequence: GGFLGK
# P-(GGFLGK-IR783)2.5% = test system: T3, P-(GGFLGK-IR783)2.5%
# T3 sequence: GGFLGK
# SW-480 cells [2] = assay: Imaging of rectally implanted SW-480 tumors in female mice; format: in vivo
# Procedure: The ability of the probe to detect solid tumors in female mice bearing rectally tumors injected with SW-480 cells was tested. The mice were injected with 0.2 mg/200 μl of P-(GGFLGK (SEQ ID NO: 11)-IR783)2.5% and the whole body was imaged 4 and 24 h post injection. […] However images from excised organs taken 24 h post injection indicated a 4-fold increase in the average fluorescence efficiency between colon and tumor tissue (FIG. 8A).
# SW-480 cells [3] = assay: Imaging of orthotopically implanted SW-480 colon tumors in nu/nu athymic mice; format: in vivo; conditions: for time post injection of accumulation in tumor area: 2 mg i.v., orthotopic SW-480 tumors
# Procedure: Three types of mouse models were employed to test the ability of the probes to detect solid tumors in the GI tract.
# Nu/nu athymic mice were injected orthotopically into the descending colon of female with SW-480 cells. After tumors reached ˜0.5 cm in diameter, mice were injected i.v. with 2 mg of IR-783 bearing polymeric probe. The results in the orthotopically implanted tumors confirm the accumulation of both P-(GGFLGK (SEQ ID NO: 11)-IR783)2.5% and P-(GGFLGK (SEQ ID NO: 11)-IR783)7.5% polymeric probes in tumor area about 4 h post injection and retention at the tumor site for at least 48 h.
# Biodistribution analysis indicated the presence of the probe in the tumor, kidneys, galbladder and the urine. The T/B ratio following whole body imaging (WBI) was 2.4 in mice treated with P-(GGFLGK (SEQ ID NO: 11)-IR783)7.5%, 4 h post injection (FIG. 6). […] The calculated ratio of the average fluorescence efficiency between colon and tumor tissue was ˜9 (FIG. 7).
# [4] = Effect of dye loading on fluorescence intensity and quenching of HPMA copolymer-IR783 conjugates; format: physicochemical; conditions: dissolved in DDW; Ex: 690 nm, Em: 820 nm
# Procedure: HPMA conjugates of various IR-783-S-Ph-COOH loadings were dissolved in DDW and their fluorescence intensity (Ex: 690 nm, Em: 820 nm). […] These observations confirm the decrease in fluorescence intensity with increasing the loading of IR-783-S-Ph-COOH on p-HPMA copolymer due to the quenching of fluorescent signal.
# The effect of NIR813 loading on p-HPMA-NIR813 quenching efficiency is shown in FIG. 3 and a complete quenching was achieved when the loading level of IR-783 on P—HPMA-IR-783 was 15%.
# Cathepsin B = Cathepsin B (Homo sapiens, UniProt P07858); assay: Cathepsin B degradation of the linker (fluorescence activation); format: biochemical; conditions: after 22 h of incubation; Cathepsin B 1.5 U, sodium acetate buffer pH 5.5
# Procedure: 0.5 mg polymer was dissolved in 1 ml sodium acetate buffer (pH=5.5). Cathepsin B (1.5 U) was added to the solution and incubate for 24 hours at 370 C. The fluorescence intensity (excitation 650 nm & 690 nm, emission range 820 nm) was measured every 30 minutes.
# The effects of IR-783-S-Ph-COOH loading on CB mediated fluorescence activation was tested.
# HT-29 cells = assay: Imaging of rectal HT-29 tumors in female mice; format: in vivo
# Procedure: The ability of the probe to detect solid tumors in female mice bearing rectal tumors introduced via injection with HT-29 cells was also evaluated. After tumors reached ˜0.5 cm in diameter, mice were injected i.v. with 2 mg of IR-783 bearing polymeric probe. Mice were kept in metabolic cages throughout the experiment (48 h). The mice were injected with 1 mg/200 μl of P-(GGFLGK (SEQ ID NO: 11)-IR783)7.5% (CB cleavable linker) and the whole body was imaged 4, 24 and 48 h post injection. […] In images from excised organs taken 24 h post injection indicated only 1.5-fold increase in the average fluorescence efficiency between colon and tumor tissue (T/C) (1.64 and 1.3-fold of increase, FIG. 9b and FIG. 10b, respectively), due to the high background fluorescence along the gastrointestinal tract (stomach, colon and […]), even though treated in metabolic cages. Once the tumor to heart ratio (T/H) was measured, an increased of about 8-10-fold was calculated. When mice were injected with the polymeric probe with non-cleavable linker P-(AP-IR783)7.5%, and the whole body was imaged 4 post injection, the T/B ratio was 1.3.
compound,measurement,setting,value
"CC1(C)C(/C=C/C=C/C=C/C=C2\N(CCCCS(=O)(=O)O)c3ccc4ccccc4c3C2(C)C)=[N+](CCCCS(=O)(=O)[O-])c2ccc3ccccc3c21 [ICG, indocyanine green]",maximal emission wavelength,[1],810 nm
"CC1(C)C(=CC=C2CCCC(C=CC3=[N+](CCCCS(=O)(=O)O)c4ccccc4C3(C)C)=C2Cl)N(CCCCS(=O)(=O)O)c2ccccc21.[OH-] [IR-783, 2-[2-[2-Chloro-3-[2-[1,3-dihydro-3,3-dimethyl-1-(4-sulfobutyl)-2H-indol-2-ylidene]-ethylidene]-1-cyclohexen-1-yl]-ethenyl]-3,3-dimethyl-1-(4-sulfobutyl)-3H-indolium hydroxide]",maximal emission wavelength,[1],800 nm
CC1(C)C(/C=C/C2=C(Sc3ccc(C(=O)O)cc3)C(=C/C=C3\N(CCCCS(=O)(=O)O)c4ccccc4C3(C)C)/CCC2)=[N+](CCCCS(=O)(=O)[O-])c2ccccc21 [IR-783-S-Ph-COOH],maximal emission wavelength,[1],830 nm
Cathepsin B,increase in the (fluorescence) intensity after 22 h of incubation with Cathepsin B,P-(GGFLGK-IR783)5%,3.6-fold
same,increase in the (fluorescence) intensity after 22 h of incubation with Cathepsin B,P-(GGFLGK-IR783)7.5%,4.9-fold
same,increase in signal intensity over time with Cathepsin B,P-(GGFLGK-IR783)2.5%,only 2-fold increase in signal intensity over time
"P-(GGFLGK-IR783)2.5%: HPMA copolymer bearing IR-783-S-Ph-COOH via degradable GGFLGK linker, 2.5 mol % dye loading (not fully specified (N-terminus); also: IR-783-S-Ph-COOH dye attached, site not given here)","T/B ratio in whole body imaging, 4 versus 24 h post injection",SW-480 cells [2]; 0.2 mg/200 μl,not significantly different
same,increase in the average fluorescence efficiency between colon and tumor tissue,"SW-480 cells [2]; excised organs 24 h post injection, 0.2 mg/200 μl, FIG. 8A",4 fold
same,time post injection of accumulation in tumor area,SW-480 cells [3],about 4 h
same,calculated ratio of the average fluorescence efficiency between colon and tumor tissue,"SW-480 cells [3]; ex vivo, 48 h post injection, FIG. 7",~9
same,Biodistribution analysis: accumulation,SW-480 cells [3]; mice sacrificed 48 h post injection,"significant accumulation in the tumor, kidneys and gallbladder"
same,fluorescence intensity at λ=820 nm compared with copolymers of other dye loading,[4],highest fluorescence intensity
same,increase in fluorescence intensity following CB degradation,Cathepsin B,2 fold
"P-(GGFLGK-IR783)5%: HPMA copolymer bearing IR-783-S-Ph-COOH via degradable GGFLGK linker, 5% dye loading (not fully specified; also: conjugated to HPMA copolymer via GGFLGK linker)",increase in fluorescence intensity following CB degradation,Cathepsin B,3.6 fold
"P-(GGFLGK-IR783)7.5%: HPMA copolymer bearing IR-783-S-Ph-COOH via degradable (CB cleavable) GGFLGK linker, 7.5% dye loading (not fully specified; also: conjugated to HPMA copolymer via GGFLGK linker)",ratio in the average fluorescence efficiency between colon and tumor tissue,"SW-480 cells [2]; excised tumor harvested 48 h post injection, FIG. 8b",~4
same,tumor accumulation with time,SW-480 cells [2]; whole body imaging,slight increase
same,time post injection of accumulation in tumor area,SW-480 cells [3],about 4 h
same,T/B ratio following whole body imaging (WBI),"SW-480 cells [3]; 4 h post injection, 2 mg, FIG. 6",2.4
same,"T/B ratio in whole body imaging, 4 versus 24 h post injection","HT-29 cells; 1 mg/200 μl, HT-29 rectal model",not significantly different
same,increase in the average fluorescence efficiency between colon and tumor tissue (T/C),"HT-29 cells; excised organs taken 24 h post injection, 1 mg/200 μl",1.5 fold
same,tumor to heart ratio (T/H),"HT-29 cells; excised organs, 1 mg/200 μl",8-10 fold
same,"increase in the average fluorescence efficiency between colon and tumor tissue (T/C), single figures","HT-29 cells; excised organs, FIG. 9b and FIG. 10b, respectively, listed as P-(GGFLGK (SEQ ID NO: 11)-IR783)7.5%",1.64 fold and 1.3 fold
same,increase in fluorescence intensity following CB degradation,Cathepsin B,4.9 fold

# Source: US20130142734A1, “TARGETED DELIVERY SYSTEMS FOR DIAGNOSTIC APPLICATIONS” (priority 2010, published 2013)
